# Tests used:
# [1] = Stability of amphotericin B solutions by HPLC analysis; settings: for Stability in methanol solution in acid medium: topical grade
# Description: The stability of the amphotericin B solutions was recorded by HPLC analysis using a reversed-phase column (C18 Bondapak, 25×0.5 cm, Waters Associates). A CH3 CN/10 mM acetate buffer, pH 7, system (39:61) was used as eluent. UV recording was performed at 404 and 362 nm. The flow rate was 2 ml/min. The retention time (RT) of amphotericin B is 9.5 minutes. Results were expressed as the percentage of the peak area.
# [2] = acetic acid and ammonia NH3 in methanol, two equivalents, 5 mg/ml in CH3OH
smiles,measurement,setting,value
C[C@@H]1[C@H](O)[C@@H](C)/C=C/C=C/C=C/C=C/C=C/C=C/C=C/[C@H](O[C@@H]2O[C@H](C)[C@@H](O)[C@H](N)[C@@H]2O)C[C@@H]2O[C@](O)(C[C@@H](O)C[C@@H](O)[C@H](O)CC[C@@H](O)C[C@@H](O)CC(=O)O[C@H]1C)C[C@H](O)[C@H]2C(=O)O [amphotericin B],Stability of neutral CH3OH solution,"[1]; 0.1 mg/ml, 4° C.",stable for several days
same,Effect of neutralization with methanolic HCl on stability,[1]; basic CH3OH solution,no effect on the stability
same,Effect of addition of an excess of NaOH on stability,"[1]; excess of NaOH, methanolic solution",does not affect the stability
same,Degradation in an acid medium,"[1]; i.v. grade, methanol, one equivalent HCl, concentration greater than 2 mg/ml",increases greatly
same,Stability in methanolic NaOH solution,"[1]; i.v. grade, one equivalent NaOH, up to 5 mg/ml",good stability
same,Stability in methanol solution in acid medium,"[1]; 0.1 mg/ml, 1.5 eq. HCl",stable
same,Stability in methanol solution in acid medium,"[1]; 5 mg/ml, acid medium (HCl)",degraded
same,Dissolution of amphotericin B,[2],do not dissolve
same,solubility,"physchem; ch3oh + 1.0 eq. hcl, organic solvent or mixture, Solubility of i.v. grade amphotericin B",5000 µg/mL
same,solubility,"physchem; ch3oh + 1.0 eq. naoh, organic solvent or mixture, Solubility of i.v. grade amphotericin B",5000 µg/mL
same,solubility,"physchem; ch3oh + 1.5 eq. hcl, organic solvent or mixture, Solubility of topical grade amphotericin B",5000 µg/mL
same,solubility,"physchem; ch3oh + 1.5 eq. naoh, organic solvent or mixture, Solubility of topical grade amphotericin B",5000 µg/mL
same,solubility,"physchem; ch3oh, acid, organic solvent or mixture, Solubility of amphotericin B",3000 to 5000 µg/mL
same,solubility,"physchem; ch3oh, basic, organic solvent or mixture, Solubility of amphotericin B",2000 to 3000 µg/mL
same,solubility,"physchem; ch3oh, neutral, organic solvent or mixture, Solubility of amphotericin B",200 to 400 µg/mL
same,solubility,"physchem; ch3oh, organic solvent or mixture, Solubility of i.v. grade amphotericin B",150 µg/mL
same,solubility,"physchem; ch3oh, organic solvent or mixture, Solubility of topical grade amphotericin B",130 µg/mL
same,solubility,"physchem; dimethylacetamide, organic solvent or mixture, Solubility of amphotericin B in DMA",6000 µg/mL
same,solubility,"physchem; dimethylformamide, acid, organic solvent or mixture, Solubility of amphotericin B",60000 to 80000 µg/mL
same,solubility,"physchem; dimethylformamide, neutral, organic solvent or mixture, Solubility of amphotericin B",2000 to 4000 µg/mL
same,solubility,"physchem; h2o, acid, Solubility of amphotericin B",100 µg/mL
same,solubility,"physchem; h2o, basic, Solubility of amphotericin B",100 µg/mL
